Source: the kinase profiling compilation of Christmann-Franck et al. (2016)

What was measured:
Assay in all cases: KINOMEscan competition binding
[1] = target: PAK4 (human) (UniProt O96013); conditions: compound 1.0 µM
[2] = target: STK16 (human) (UniProt O75716); conditions: compound 1.0 µM
[3] = target: ERBB2 (human) (UniProt P04626); conditions: for kinase still bound, per cent of control: compound 1.0 µM
[4] = target: CDK8 (human) (UniProt P49336); conditions: compound 1.0 µM
[5] = target: HIPK1 (human) (UniProt Q86Z02); conditions: compound 1.0 µM
[6] = target: IKBKE (human) (UniProt Q14164); conditions: compound 1.0 µM
[7] = target: CAMKK1 (human) (UniProt Q8N5S9); conditions: compound 1.0 µM
[8] = target: RPS6KA2 KD1 (human) (UniProt Q15349); conditions: compound 1.0 µM
[9] = target: MAP3K12 (human) (UniProt Q12852); conditions: compound 1.0 µM
[10] = target: GAK (human) (UniProt O14976); conditions: compound 1.0 µM
Sequence of GAK (human) (O14976 whole entry, looked up): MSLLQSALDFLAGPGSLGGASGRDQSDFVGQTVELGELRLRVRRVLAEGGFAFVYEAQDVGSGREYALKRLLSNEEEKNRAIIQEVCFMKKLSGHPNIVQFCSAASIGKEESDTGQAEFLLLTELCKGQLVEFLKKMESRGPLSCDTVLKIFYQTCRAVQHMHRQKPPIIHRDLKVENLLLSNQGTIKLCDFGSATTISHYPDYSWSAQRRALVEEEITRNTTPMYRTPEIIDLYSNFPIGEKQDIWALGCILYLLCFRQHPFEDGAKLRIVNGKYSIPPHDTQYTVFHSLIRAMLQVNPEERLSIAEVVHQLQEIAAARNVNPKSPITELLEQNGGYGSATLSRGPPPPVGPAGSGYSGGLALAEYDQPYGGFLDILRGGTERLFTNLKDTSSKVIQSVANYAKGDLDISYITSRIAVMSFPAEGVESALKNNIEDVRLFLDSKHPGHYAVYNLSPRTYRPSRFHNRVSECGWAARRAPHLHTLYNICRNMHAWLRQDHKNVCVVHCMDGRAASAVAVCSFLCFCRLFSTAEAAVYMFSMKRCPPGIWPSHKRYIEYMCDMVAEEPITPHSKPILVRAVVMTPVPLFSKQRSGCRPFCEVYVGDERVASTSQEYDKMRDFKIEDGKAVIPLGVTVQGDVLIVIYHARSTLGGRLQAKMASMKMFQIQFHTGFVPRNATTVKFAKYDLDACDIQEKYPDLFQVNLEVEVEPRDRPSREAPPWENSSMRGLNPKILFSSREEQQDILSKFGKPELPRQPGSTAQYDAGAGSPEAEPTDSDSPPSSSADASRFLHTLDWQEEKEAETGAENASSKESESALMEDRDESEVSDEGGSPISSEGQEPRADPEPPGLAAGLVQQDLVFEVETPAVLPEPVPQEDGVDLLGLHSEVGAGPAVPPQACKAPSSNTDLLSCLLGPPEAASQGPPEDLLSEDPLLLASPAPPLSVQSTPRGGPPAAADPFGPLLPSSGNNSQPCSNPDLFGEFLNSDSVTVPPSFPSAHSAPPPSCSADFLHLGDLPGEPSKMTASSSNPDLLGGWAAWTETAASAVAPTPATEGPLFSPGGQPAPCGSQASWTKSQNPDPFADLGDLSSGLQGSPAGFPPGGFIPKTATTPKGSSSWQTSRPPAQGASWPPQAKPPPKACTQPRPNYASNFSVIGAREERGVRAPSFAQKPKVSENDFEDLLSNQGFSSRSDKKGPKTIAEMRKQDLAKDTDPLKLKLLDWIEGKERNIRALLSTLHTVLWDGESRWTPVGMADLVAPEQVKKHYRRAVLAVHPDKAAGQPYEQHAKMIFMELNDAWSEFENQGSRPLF

[11] = target: MAP2K4 (human) (UniProt P45985); conditions: compound 1.0 µM
[12] = target: CDK14 (human) (UniProt O94921); conditions: compound 1.0 µM
[13] = target: STK36 (human) (UniProt Q9NRP7); conditions: compound 1.0 µM
[14] = target: PRKCH (human) (UniProt P24723); conditions: compound 1.0 µM
[15] = target: JAK2 JH1 catalytic (human) (UniProt O60674); conditions: compound 1.0 µM
[16] = target: HIPK3 (human) (UniProt Q9H422); conditions: compound 1.0 µM
[17] = target: IGF1R (human) (UniProt P08069); conditions: compound 1.0 µM
[18] = system: FLT3 (human), P36888 [D835H]; conditions: compound 1.0 µM
[19] = target: NEK9 (human) (UniProt Q8TD19); conditions: compound 1.0 µM
[20] = target: STK4 (human) (UniProt Q13043); conditions: compound 1.0 µM
Sequence of STK4 (human) (Q13043 whole entry, looked up): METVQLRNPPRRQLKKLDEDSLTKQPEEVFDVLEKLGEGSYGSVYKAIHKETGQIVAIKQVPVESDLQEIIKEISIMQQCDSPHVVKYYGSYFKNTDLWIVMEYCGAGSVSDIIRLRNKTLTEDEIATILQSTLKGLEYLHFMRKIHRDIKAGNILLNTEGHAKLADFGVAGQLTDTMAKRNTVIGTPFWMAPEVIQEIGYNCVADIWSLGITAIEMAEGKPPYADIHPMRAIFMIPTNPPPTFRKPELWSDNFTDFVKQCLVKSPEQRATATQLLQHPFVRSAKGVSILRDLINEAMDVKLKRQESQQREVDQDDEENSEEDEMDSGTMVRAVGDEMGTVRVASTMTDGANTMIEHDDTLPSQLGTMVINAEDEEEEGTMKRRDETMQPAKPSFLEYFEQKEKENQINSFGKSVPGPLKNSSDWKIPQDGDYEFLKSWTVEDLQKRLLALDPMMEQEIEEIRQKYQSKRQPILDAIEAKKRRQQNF

[21] = target: SLK (human) (UniProt Q9H2G2); conditions: compound 1.0 µM
[22] = system: PIK3CA (human), P42336 [H1047Y]; conditions: compound 1.0 µM
[23] = target: CDC42BPB (human) (UniProt Q9Y5S2); conditions: compound 1.0 µM
[24] = target: ULK2 (human) (UniProt Q8IYT8); conditions: compound 1.0 µM
[25] = target: CAMK4 (human) (UniProt Q16566); conditions: compound 1.0 µM
[26] = target: MAP2K6 (human) (UniProt P52564); conditions: compound 1.0 µM
[27] = target: STK38 (human) (UniProt Q15208); conditions: compound 1.0 µM
[28] = target: CSNK1G1 (human) (UniProt Q9HCP0); conditions: compound 1.0 µM
[29] = target: INSRR (human) (UniProt P14616); conditions: compound 1.0 µM
[30] = target: BRAF (human) (UniProt P15056); conditions: compound 1.0 µM
[31] = target: PIK3CA (human) (UniProt P42336); conditions: compound 1.0 µM
[32] = target: CSNK1G2 (human) (UniProt P78368); conditions: compound 1.0 µM
Sequence of CSNK1G2 (human) (P78368 whole entry, looked up): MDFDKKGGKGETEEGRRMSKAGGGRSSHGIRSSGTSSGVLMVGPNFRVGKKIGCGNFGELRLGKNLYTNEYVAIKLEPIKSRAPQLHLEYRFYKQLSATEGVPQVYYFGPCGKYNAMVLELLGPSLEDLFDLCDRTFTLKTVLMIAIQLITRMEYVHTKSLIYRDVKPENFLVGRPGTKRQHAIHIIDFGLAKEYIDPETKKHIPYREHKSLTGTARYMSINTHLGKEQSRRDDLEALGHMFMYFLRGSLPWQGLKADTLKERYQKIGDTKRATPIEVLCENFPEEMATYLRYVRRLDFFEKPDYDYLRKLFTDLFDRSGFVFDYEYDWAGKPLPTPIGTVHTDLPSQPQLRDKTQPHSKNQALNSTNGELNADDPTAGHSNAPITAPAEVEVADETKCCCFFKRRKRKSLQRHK

[33] = target: PAK6 (human) (UniProt Q9NQU5); conditions: compound 1.0 µM
[34] = target: NIM1 (human) (UniProt Q8IY84); conditions: compound 1.0 µM
Sequence of NIM1 (human) (Q8IY84 whole entry, looked up): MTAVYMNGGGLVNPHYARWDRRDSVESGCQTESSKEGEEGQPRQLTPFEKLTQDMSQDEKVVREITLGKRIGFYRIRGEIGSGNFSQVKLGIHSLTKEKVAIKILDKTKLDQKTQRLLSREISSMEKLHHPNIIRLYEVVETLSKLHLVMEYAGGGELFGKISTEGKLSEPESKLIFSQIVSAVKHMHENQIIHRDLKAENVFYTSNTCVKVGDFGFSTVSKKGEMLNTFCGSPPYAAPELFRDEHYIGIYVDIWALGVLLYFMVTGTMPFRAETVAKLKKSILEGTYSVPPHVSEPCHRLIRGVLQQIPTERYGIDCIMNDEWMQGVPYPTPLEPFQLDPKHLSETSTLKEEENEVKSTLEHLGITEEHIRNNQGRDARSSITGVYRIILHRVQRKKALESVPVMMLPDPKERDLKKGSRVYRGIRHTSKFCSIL

[35] = target: RPS6KA3 KD1 (human) (UniProt P51812); conditions: compound 1.0 µM
[36] = target: ROCK2 (human) (UniProt O75116); conditions: compound 1.0 µM
[37] = target: FER (human) (UniProt P16591); conditions: compound 1.0 µM
[38] = target: STK17A (human) (UniProt Q9UEE5); conditions: compound 1.0 µM
[39] = target: KIT (human) (UniProt P10721); conditions: compound 1.0 µM
[40] = target: ABL2 (human) (UniProt P42684); conditions: compound 1.0 µM
[41] = target: CSNK1E (human) (UniProt P49674); conditions: compound 1.0 µM
[42] = target: RPS6KA2 KD2 (human) (UniProt Q15349); conditions: compound 1.0 µM

Sequence of ERBB2 (human) (P04626 whole entry, looked up): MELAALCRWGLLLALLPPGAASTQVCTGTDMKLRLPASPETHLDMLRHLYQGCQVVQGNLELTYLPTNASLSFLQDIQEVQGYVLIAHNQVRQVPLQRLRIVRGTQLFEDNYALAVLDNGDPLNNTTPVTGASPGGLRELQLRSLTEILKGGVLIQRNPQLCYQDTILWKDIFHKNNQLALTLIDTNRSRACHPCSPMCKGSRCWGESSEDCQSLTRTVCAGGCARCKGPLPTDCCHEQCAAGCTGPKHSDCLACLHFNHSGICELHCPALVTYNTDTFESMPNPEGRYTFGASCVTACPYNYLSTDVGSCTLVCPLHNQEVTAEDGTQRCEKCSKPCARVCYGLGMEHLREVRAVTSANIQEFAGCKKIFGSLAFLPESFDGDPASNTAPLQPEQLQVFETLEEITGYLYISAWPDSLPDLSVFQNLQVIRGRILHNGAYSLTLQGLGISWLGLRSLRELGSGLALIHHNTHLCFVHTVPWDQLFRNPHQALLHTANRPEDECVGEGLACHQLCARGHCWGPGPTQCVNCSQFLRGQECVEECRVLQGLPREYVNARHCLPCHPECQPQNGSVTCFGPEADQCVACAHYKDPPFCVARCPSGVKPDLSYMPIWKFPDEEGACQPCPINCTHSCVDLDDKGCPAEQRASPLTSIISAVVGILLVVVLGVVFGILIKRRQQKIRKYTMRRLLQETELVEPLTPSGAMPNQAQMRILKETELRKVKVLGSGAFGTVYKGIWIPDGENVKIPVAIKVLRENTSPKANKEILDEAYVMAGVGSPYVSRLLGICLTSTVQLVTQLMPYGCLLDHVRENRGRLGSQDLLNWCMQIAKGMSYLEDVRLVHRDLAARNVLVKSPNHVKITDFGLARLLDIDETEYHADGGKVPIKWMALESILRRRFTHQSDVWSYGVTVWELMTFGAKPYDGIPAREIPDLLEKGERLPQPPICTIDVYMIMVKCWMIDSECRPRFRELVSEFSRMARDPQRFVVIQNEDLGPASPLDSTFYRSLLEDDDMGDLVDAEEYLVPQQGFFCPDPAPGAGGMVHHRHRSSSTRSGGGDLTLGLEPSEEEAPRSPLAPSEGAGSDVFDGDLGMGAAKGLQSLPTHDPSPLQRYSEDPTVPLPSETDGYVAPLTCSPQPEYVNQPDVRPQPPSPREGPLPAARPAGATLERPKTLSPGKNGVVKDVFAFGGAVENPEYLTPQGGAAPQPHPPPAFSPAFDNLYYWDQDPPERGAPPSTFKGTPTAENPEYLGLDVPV
Sequence of PAK4 (human) (O96013 whole entry, looked up): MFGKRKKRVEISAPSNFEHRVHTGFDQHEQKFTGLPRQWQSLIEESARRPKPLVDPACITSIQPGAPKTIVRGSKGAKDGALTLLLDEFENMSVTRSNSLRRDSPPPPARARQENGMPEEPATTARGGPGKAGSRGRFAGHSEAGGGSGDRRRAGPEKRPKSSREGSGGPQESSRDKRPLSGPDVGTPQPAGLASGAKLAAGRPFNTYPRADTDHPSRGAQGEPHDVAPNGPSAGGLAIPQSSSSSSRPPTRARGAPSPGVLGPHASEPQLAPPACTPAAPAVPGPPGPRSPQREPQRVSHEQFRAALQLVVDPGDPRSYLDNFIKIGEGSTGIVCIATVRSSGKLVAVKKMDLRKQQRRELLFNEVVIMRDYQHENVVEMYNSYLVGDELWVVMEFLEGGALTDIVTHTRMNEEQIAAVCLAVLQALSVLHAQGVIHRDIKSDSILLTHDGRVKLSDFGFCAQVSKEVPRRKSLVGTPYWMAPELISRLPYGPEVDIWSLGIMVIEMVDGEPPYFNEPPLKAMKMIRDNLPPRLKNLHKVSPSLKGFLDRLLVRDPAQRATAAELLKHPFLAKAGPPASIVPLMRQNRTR
Sequence of CDK8 (human) (P49336 whole entry, looked up): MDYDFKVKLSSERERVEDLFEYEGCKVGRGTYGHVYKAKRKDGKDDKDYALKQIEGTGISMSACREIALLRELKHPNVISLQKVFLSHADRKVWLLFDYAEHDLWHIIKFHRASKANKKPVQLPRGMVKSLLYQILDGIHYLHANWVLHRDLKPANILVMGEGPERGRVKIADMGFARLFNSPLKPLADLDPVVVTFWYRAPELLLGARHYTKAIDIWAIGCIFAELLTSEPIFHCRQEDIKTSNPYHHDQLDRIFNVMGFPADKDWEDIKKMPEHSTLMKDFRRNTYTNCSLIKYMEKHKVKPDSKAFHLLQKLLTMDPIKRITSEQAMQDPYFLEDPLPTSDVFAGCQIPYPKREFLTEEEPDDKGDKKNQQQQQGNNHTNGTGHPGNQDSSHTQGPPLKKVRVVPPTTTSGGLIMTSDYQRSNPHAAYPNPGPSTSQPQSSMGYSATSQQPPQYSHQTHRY

SMILES: CN(C)C/C=C/C(=O)Nc1cccc(C(=O)Nc2ccc(Nc3nccc(-c4c(-c5ccccc5)nn5ccccc45)n3)cc2)c1
- kinase still bound, per cent of control [1]: 91%
- kinase still bound, per cent of control [2]: 37%
- Kd [3]: 230 nM
- kinase still bound, per cent of control [3]: 0.4%
- kinase still bound, per cent of control [4]: 100%
- kinase still bound, per cent of control [5]: 100%
- kinase still bound, per cent of control [6]: 95%
- kinase still bound, per cent of control [7]: 100%
- kinase still bound, per cent of control [8]: 86%
- kinase still bound, per cent of control [9]: 84%
- kinase still bound, per cent of control [10]: 2.4%
- kinase still bound, per cent of control [11]: 100%
- kinase still bound, per cent of control [12]: 100%
- kinase still bound, per cent of control [13]: 2.2%
- kinase still bound, per cent of control [14]: 100%
- kinase still bound, per cent of control [15]: 100%
- kinase still bound, per cent of control [16]: 100%
- kinase still bound, per cent of control [17]: 100%
- kinase still bound, per cent of control [18]: 13%
- kinase still bound, per cent of control [19]: 100%
- kinase still bound, per cent of control [20]: 4.2%
- kinase still bound, per cent of control [21]: 18%
- kinase still bound, per cent of control [22]: 93%
- kinase still bound, per cent of control [23]: 16%
- kinase still bound, per cent of control [24]: 100%
- kinase still bound, per cent of control [25]: 100%
- kinase still bound, per cent of control [26]: 56%
- kinase still bound, per cent of control [27]: 97%
- kinase still bound, per cent of control [28]: 39%
- kinase still bound, per cent of control [29]: 97%
- kinase still bound, per cent of control [30]: 43%
- kinase still bound, per cent of control [31]: 99%
- kinase still bound, per cent of control [32]: 0.85%
- kinase still bound, per cent of control [33]: 100%
- kinase still bound, per cent of control [34]: 100%
- kinase still bound, per cent of control [35]: 50%
- kinase still bound, per cent of control [36]: 75%
- kinase still bound, per cent of control [37]: 87%
- kinase still bound, per cent of control [38]: 93%
- kinase still bound, per cent of control [39]: 0.15%
- kinase still bound, per cent of control [40]: 21%
- kinase still bound, per cent of control [41]: 0%
- kinase still bound, per cent of control [42]: 82%

SMILES: Cc1cc(NC(=O)c2cccc(NC(=O)/C=C/CN(C)C)c2)ccc1Nc1nccc(-c2cccnc2)n1
- kinase still bound, per cent of control [1]: 100%
- kinase still bound, per cent of control [2]: 61%
- kinase still bound, per cent of control [3]: 82%
- kinase still bound, per cent of control [4]: 51%
- kinase still bound, per cent of control [5]: 100%
- kinase still bound, per cent of control [6]: 91%
- kinase still bound, per cent of control [7]: 100%
- kinase still bound, per cent of control [8]: 100%
- kinase still bound, per cent of control [9]: 99%
- kinase still bound, per cent of control [10]: 92%
- kinase still bound, per cent of control [11]: 70%
- kinase still bound, per cent of control [12]: 88%
- kinase still bound, per cent of control [13]: 91%
- kinase still bound, per cent of control [14]: 94%
- kinase still bound, per cent of control [15]: 100%
- kinase still bound, per cent of control [16]: 100%
- kinase still bound, per cent of control [17]: 93%
- kinase still bound, per cent of control [18]: 82%
- kinase still bound, per cent of control [19]: 100%
- kinase still bound, per cent of control [20]: 100%
- kinase still bound, per cent of control [21]: 100%
- kinase still bound, per cent of control [22]: 96%
- kinase still bound, per cent of control [23]: 68%
- kinase still bound, per cent of control [24]: 96%
- kinase still bound, per cent of control [25]: 100%
- kinase still bound, per cent of control [26]: 95%
- kinase still bound, per cent of control [27]: 97%
- kinase still bound, per cent of control [28]: 100%
- kinase still bound, per cent of control [29]: 100%
- kinase still bound, per cent of control [30]: 90%
- kinase still bound, per cent of control [31]: 100%
- kinase still bound, per cent of control [32]: 73%
- kinase still bound, per cent of control [33]: 100%
- kinase still bound, per cent of control [34]: 100%
- kinase still bound, per cent of control [35]: 100%
- kinase still bound, per cent of control [36]: 49%
- kinase still bound, per cent of control [37]: 100%
- kinase still bound, per cent of control [38]: 24%
- kinase still bound, per cent of control [39]: 3.5%
- kinase still bound, per cent of control [40]: 97%
- kinase still bound, per cent of control [41]: 70%
- kinase still bound, per cent of control [42]: 100%
